Measured values published in ChEMBL document CHEMBL1201862, “PubChem BioAssay data set” (2004).
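Growth conditions: 96-well plates. Treatment: test compound, 48 hours, 5 concentrations. Analysis: linear interpolation between bracketing concentrations; unreached endpoints set to highest concentration. Here, GI50 denotes the concentration required for 50% inhibition of growth.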 The source made the active and inactive calls. Rule as the data show it: active = GI50 up to about 1.1 µM and inactive = higher.

Assays:
Assay in all cases: growth of human tumour cells (NCI), 48 h
HOP-62 = tested on: HOP-62
TK-10 = tested on: TK-10
SNB-75 = tested on: SNB-75
SW-620 = tested on: SW-620
Malme-3M = tested on: Malme-3M
MOLT-4 = tested on: MOLT-4
NCI-H23 = tested on: NCI-H23
HT-29 = tested on: HT-29
LOX IMVI = tested on: LOX IMVI
RXF 393 = tested on: RXF 393
EKVX = tested on: EKVX
HCT-116 = tested on: HCT-116
SF-539 = tested on: SF-539
SN12C = tested on: SN12C
SF-268 = tested on: SF-268
HOP-92 = tested on: HOP-92
SF-295 = tested on: SF-295
HCT-15 = tested on: HCT-15
NCI-H460 = tested on: NCI-H460
NCI-H522 = tested on: NCI-H522

Structure (SMILES)	GI50 (HOP-62)	GI50 (TK-10)	GI50 (SNB-75)	GI50 (SW-620)	GI50 (Malme-3M)	GI50 (MOLT-4)	GI50 (NCI-H23)	GI50 (HT-29)	GI50 (LOX IMVI)	GI50 (RXF 393)	GI50 (EKVX)	GI50 (HCT-116)	GI50 (SF-539)	GI50 (SN12C)	GI50 (SF-268)	GI50 (HOP-92)	GI50 (SF-295)	GI50 (HCT-15)	GI50 (NCI-H460)	GI50 (NCI-H522)
N#Cc1cnsc1	> 100 µM (inactive)	> 100 µM (inactive)	> 100 µM (inactive)	> 100 µM (inactive)	> 100 µM (inactive)	> 100 µM (inactive)	> 100 µM (inactive)	> 100 µM (inactive)	> 100 µM (inactive)	> 100 µM (inactive)	> 100 µM (inactive)	> 100 µM (inactive)	> 100 µM (inactive)	> 100 µM (inactive)	> 100 µM (inactive)	> 100 µM (inactive)	> 100 µM (inactive)	> 100 µM	> 100 µM (inactive)	
Nc1nc(N)c2ncn(-c3ccc(Br)cc3)c2n1	23.6 µM (inactive)	35.1 µM (inactive)	6.97 µM (inactive)	45.9 µM (inactive)	10.6 µM (inactive)	11.6 µM (inactive)	40.6 µM (inactive)	15.1 µM (inactive)	27 µM (inactive)	14.2 µM (inactive)	5.45 µM (inactive)	25.5 µM (inactive)	14.7 µM (inactive)	16.9 µM (inactive)	15.4 µM (inactive)		34.4 µM (inactive)	19.9 µM	34.9 µM (inactive)	9.77 µM (inactive)
COC(=O)c1ccc2cc(O)ccc2c1	> 100 µM (inactive)	> 100 µM (inactive)		> 100 µM (inactive)	> 100 µM (inactive)	25.2 µM (inactive)	72.3 µM (inactive)	47.6 µM (inactive)	55.6 µM (inactive)	> 100 µM (inactive)	55.8 µM (inactive)	68.7 µM (inactive)	89.3 µM (inactive)	> 100 µM (inactive)	21.5 µM (inactive)	> 100 µM (inactive)	53.5 µM (inactive)	> 100 µM		58.6 µM (inactive)
CCCCCCCCCCCCCCC(O)C1CCC(C(O)CCC(O)CCCCCC(O)CC2=CC(C)OC2=O)O1 (centres undefined)	1.55 µM (inactive)	4.27 µM (inactive)	2.22 µM (inactive)	2.52 µM (inactive)	1.58 µM (inactive)	0.64 µM (active)	< 0.01 µM (active)	1.82 µM (inactive)	1.18 µM (inactive)		1.93 µM (inactive)	1.36 µM (inactive)	1.3 µM (inactive)	1.24 µM (inactive)	0.832 µM (active)	2.06 µM (inactive)	1.26 µM (inactive)	1.29 µM	1.79 µM (inactive)	1.14 µM (inactive)
O=C(C/C(CCC(=O)N(Cc1ccccc1)Cc1ccccc1)=N/Nc1ccc([N+](=O)[O-])cc1[N+](=O)[O-])c1ccccc1	70.8 µM (inactive)	> 100 µM (inactive)	> 100 µM (inactive)	45.2 µM (inactive)	> 100 µM (inactive)	22.8 µM (inactive)	> 100 µM (inactive)	54.1 µM (inactive)	25.4 µM (inactive)		> 100 µM (inactive)	> 100 µM (inactive)	54 µM (inactive)		38.8 µM (inactive)	> 100 µM (inactive)	> 100 µM (inactive)	40.5 µM	92.9 µM (inactive)	> 100 µM (inactive)
C[C@]12CCC(=O)C=C1CC[C@@H]1[C@@H]2[C@@H](O)C[C@@]2(C)[C@H]1CC[C@]2(O)C(=O)COC(=O)COCC(=O)O	> 100 µM (inactive)	> 100 µM (inactive)	> 100 µM (inactive)	> 100 µM (inactive)	> 100 µM (inactive)	> 100 µM (inactive)	> 100 µM (inactive)	> 100 µM (inactive)	> 100 µM (inactive)		> 100 µM (inactive)	> 100 µM (inactive)	> 100 µM (inactive)	> 100 µM (inactive)	> 100 µM (inactive)	> 100 µM (inactive)	> 100 µM (inactive)	> 100 µM	> 100 µM (inactive)	> 100 µM (inactive)
CCN(C(=O)N[C@@H](Cc1ccccc1)C(=O)N[C@@H](CC(C)C)C(=O)OC)c1ccccc1	34.4 µM (inactive)	33 µM (inactive)		25.4 µM (inactive)		15.8 µM (inactive)	24 µM (inactive)	14.3 µM (inactive)	13.8 µM (inactive)	19.1 µM (inactive)	18.7 µM (inactive)	20.2 µM (inactive)	19.5 µM (inactive)	16 µM (inactive)		22.2 µM (inactive)	26.5 µM (inactive)	15.8 µM	12.4 µM (inactive)	9.55 µM (inactive)
